In patent EP0840781B1, “METHODS AND DEVICES FOR THE REMOVAL OF PSORALENS FROM BLOOD PRODUCTS” (Cerus Corporation, priority 1995, dated 1996):

What was measured:
[1] = HPLC retention time as rough estimate of hydrophobicity; format: physicochemical; settings: C-18 reversed phase column, methanol / 25 mM KH2PO4 pH 3.5 gradient
Protocol: Adsorption data were then obtained by HPLC. analysis on the test and control samples. Specifically, a 200 µl sample volume of PC was removed from each tube following the incubation period (special care being taken to ensure that no adsorbent particles were removed with the test samples). […] The addition of methanol lyses platelets and precipitates plasma proteins so that psoralen contained within the platelets is not excluded by the assay.
Since each of the psoralens were analyzed using the same type of HPLC assay, one can use the psoralens' relative retention times to rank them according to increasing hydrophobicity. […] Strong interactions with cells or plasma proteins could compete with adsorption, thereby interfering with resin binding.

[2] = test system: Salmonella typhimurium tester strains TA97a, TA98, TA100, TA102, TA1537 and TA1538; settings: two-fold or greater increase in revertants above background and dose dependent response; TA100, TA102
Description: The second property that is important in testing a compound for use in methods described herein is mutagenicity. The most widely used mutagen/carcinogen screening assay is the Ames test. This assay is described by D.M. Maron and B.N. Ames in Mutation Research 113:173 ( 1983) and a specific screen is described in detail in Example 17, below. The Ames test utilizes several unique strains of Salmonella typhimurium that are histidine- dependent for growth and that lack the usual DNA repair enzymes. The frequency of normal mutations that render the bacteria independent of histidine (i.e., the frequency of spontaneous revertants) is low. The test allows one to evaluate the impact of a compound on this revenant frequency.
Because some substances are not mutagenic by themselves, but are converted to a mutagen by metabolic action, the compound to be tested is mixed with the bacteria on agar plates along with the liver extract. The liver extract serves to mimic metabolic action in an animal.
The mixtures are allowed to incubate. Growth of bacteria (if any) is checked by counting colonies.
In this example the compounds described herein are tested for their dark mutagenicity using an Ames assay. The procedures used for the Salmonella mutagenicity test as described in detail by Maron and Ames were followed exactly. Maron, D.M. and B.N. Ames, Mutation Research 113: 173 ( 1983). A brief description for each procedure is given here. The tester strains TA97a, TA98, TA 100, TA102, TA1537 and TA1538 were obtained from Dr. Ames. TA97a, TA98, TA1537 and TA1538 are frameshift tester strains. TA100 and TA102 are base-substitution tester strains. Upon receipt each strain was cultured under a variety of conditions to confirm the genotypes specific to the strains.
The first tests done with the strains were to determine the range of spontaneous reversion for each of the strains. With each mutagenicity experiment the spontaneous reversion of the tester strains to histidine independence was measured and expressed as the number of spontaneous revertants per plate. This served as the background controls.
For all experiments, the pre-incubation procedure was used. In this procedure one vial of each tester strain was thawed and 20 µL of this culture was added to 6 mL of Oxoid Nutrient Broth #2. This solution was allowed to shake for 10 hours at 37°C. In the pre-incubation procedure, 0.1 mL of this overnight culture was added to each of the required number of sterile test tubes. To half of the tubes 0.5 mL of a 10% S-9 solution containing Aroclor 1254 induced rat liver extract (Molecular Toxicology Inc., Annapolis, MD), and MgCl2, KCl, glucose-6-phosphate, NADP, and sodium phosphate buffer (Sigma, St. Louis, Missouri) were added. To the other half of the tubes 0.5 mL of 0.2M sodium phospate buffer, pH 7.4, was used in place of the S-9 mixture (the - S9 samples). Finally 0.1 mL of the test solution containing either 0, 0.1, 0.5, 1, 5, 10, 50, 100, 250, or 500 µg/mL of the test compound was added. The 0.7 mL mixture was vonexed and then pre-incubated while shaking for 20 minutes at 37°C. After shaking, 2 mL of molten top agar supplemented with histidine and biotin were added to the 0.7 mL mixture and immediately poured onto a minimal glucose agar plate (volume of base agar was 20 mL). The top agar was allowed 30 minutes to solidify and then the plates were inverted and incubated for 44 hours at 37°C. After incubation the number of revertant colonies on each plate were counted.
Maron and Ames (1983) describe the conflicting views with regard to the statistical treatment of data generated from the test.

Pseudomonas = assay: Bacterial inactivation by compound plus UVA, colony forming units; format: cell-based; settings: 16 µM; 5 J/cm^2 irradiation; starting titer 6.5 logs
Protocol: In this example bacterial inactivation by the photoreactive nucleic acid binding compounds described herein was measured as a function of the ability of the bacteria to subsequently replicate. A gram negative bacteria was chosen as representative of the more difficult bacterial strains to inactivate.
The bacteria a strain of Pseudomonas, was inoculated into LB with a sterile loop and grown overnight in a shaker at 37°C. Based on the approximation that one OD at 610 nm is equivalent to 5 x 10^8 colony forming units (cfu)/mL, a 1:10 dilution of the culture was measured on a spectrophotometer. (manufactured by Shimatsu). The bacterial culture was added to a solution of 15% fetal bovine serum in DMEM to a final bacteria concentration of approximately 10^6/mL. An aliquot (0.8 mL) was transferred to a 1.5 mL snap-top polyethylene tube. An aliquot (0.004-0.040 mL) of the test compound stock solution prepared in water, ethanol or dimethylsulfoxide at 0.80-8.0 mM was added to the tube. Compounds were tested at a concentration of 16 µM. The tubes were placed in a light device as described in EXAMPLE I and irradiated with 1.3 J/cm^2, 1.2 J/cm^2, and finally 2.5 J/cm^2, for a total of 5 J/cm^2. 150 µL were removed for testing after each pulse period. Sterile 13 mL dilution tubes were prepared; each test compound required one tube with 0.4 mL of LB broth and four tubes containing 0.5 mL of LB broth. To make the dilutions, a 0.050 mL aliquot of the irradiated solution of phage and test compound was added to the first dilution tube of […] of media then 0.050 mL of this solution was added to the second tube of 0.5 mL medium (1:10). The second solution was then diluted serially (1:10) into the remaining tubes. 100 µL of the original sample and each dilution are plated separately onto LB agar plates and incubated at 37 °C overnight. The colony forming units were then counted the following morning and the titer of the phage remaining after phototreatment was calculated based on the dilution factors.
The following controls were run: the "bacteria only" in which bacteria was not treated with test compound and not irradiated (listed as "starting titer" in the tables below); the "UV only" in which the bacteria was irradiated in the absence of test compound. Dark controls were not performed here for reasons set forth in Example 12 above.

R17 = assay: r-17 bacteriophage assay: R17 treated with compound and UVA, remaining titer by plaque count on Hfr 3000 bacteria; format: cell-based; settings: 32 µM; 1 Minute Irradiation; Starting Titer Approx. 7.5 Logs (Table 6)
Protocol: In the r-17 assay, the bacteriophage was placed in a solution with each compound tested and was then irradiated. The ability of the phage to subsequently infect bacteria and inhibit their growth was measured. The bacteriophage was selected for its relatively accessible nucleic acid such that the culture growth inhibition would accurately reflect nucleic acid damage by the test compounds. The bacteriophage assay for nucleic acid binding to test compounds offers a safe and inexpensive procedure to identify compounds likely to display efficient pathogen inactivation. Previous experiments support that the r-17 assay accurately measures HIV-1 sensitivity to similar compounds. […] Modified Eagles Medium (DMEM) to a final phage concentration of 10^9/mL. An aliquot (0.5 mL) was transferred to a 1.5 mL snap-top polyethylene tube. […] Louis, MO). The tubes were placed in a light device as described in EXAMPLE 1 and irradiated for between 1 and 10 minutes. […] To make the dilutions. a 0.100 mL aliquot of the irradiated solution of phage and test compound was added to the first dilution tube of 0.4 mL of media then 0.020 mL of this solution was added to the second tube of 0.5 mL medium (1:25). […] After the top agar hardened, the plates were incubated at 37 °C overnight. The plaque forming units were then counted the following morning and the titer of the phage remaining after phototreatment was calculated based on the dilution factors. The following controls were run: the "phage only" in which phage was not treated with test compound and not irradiated (listed as "starting titer" in the tables below); the "UV only" in which the phage was irradiated in the absence of test compound; and the "dark" control in which the phage/test compound solution was not irradiated before it was diluted and plated. Compounds described herein were also tested at a constant concentration for varying doses of UV light. […] The compound tested was added at the desired concentration and the samples were vortexed. […] Between each 1.0 J/cm^2 intervals, 100µL was removed from each sample and placed in the first corresponding dilution tube, then five sequential dilutions were performed for each compound tested, at all 3 irradiation doses, as described above in this example. […] The contents of each tube was poured into its own LB plate and the plates were incubated overnight at 37 °C. Plaques were counted by visual inspection the following morning.

Compound | HPLC retention time (rough estimate of hydrophobicity) [1] [min] | base-substitution mutagenicity (Ames, summary) [2] | log kill of bacteria (Pseudomonas) (Pseudomonas) [logs] | R17 log kill (32 µM) (R17)
CC[N+](CC)(CC)Cc1c(C)oc2c(C)c3oc(=O)cc(C)c3cc12 [Psoralen A, 4'-(triethylamino) methyl-4,5',8-trimethylpsoralen] | 7.8 | – | – | –
COc1c2occc2cc2ccc(=O)oc12 [Compound 8-MOP, 8-Methoxypsoralen, reference compound] | – | weak base-substitution mutagen in TA102 at 500µg/plate | 1.9 | 0
CCN(CC)CCCOc1c2occc2c(Br)c2ccc(=O)oc12 [Psoralen C, 5-bromo-8-(diethylaminopropyloxy)-psoralen] | 12.0 | – | – | –
COc1c2occc2c(Br)c2ccc(=O)oc12 [Psoralen B, 5-bromo-8-methoxypsoralen] | 20.0 | – | – | –
